Experiments:
Assay type in all cases: in vivo
[1] = system: Aeschynomene indica; assay: Herbicidal activity test, pre-weeds emergence treatment; conditions: assessed 2 to 3 weeks after spraying, scale 0-10 (0: no effect, 10: complete death)
Experimental: (§1) A rectangular plastic pot with a surface area of 300 cm^2 was filled with sandy loam soil and mixed soil at a ratio of 1:1, and four kinds of weeds including Quamoclit pennata, Abutilon theophrasti Medicus, and Aeschynomene indica, Xanthium strumarium were sown therein. In another pot made in the same way, three kinds of crop seeds including maize, wheat, and rice were sown. The pots were watered and one day later, a medicament was sprayed thereon. The spraying was performed by using a track sprayer (R&D Sprayer, USA) equipped with Teejet 8002EVS (Spraying Systems Co., USA) nozzle, and the spray amount was controlled to be 1000 L/ha. A spray solution was prepared by dissolving the compound of each example or a control material in acetone, and then, adding the same amount of 0.1% (v/v) tween 20 aqueous solution thereto. The spray amount was 200 g/ha. The pots were placed in a greenhouse in which the temperature was maintained at 25° C. to 30° C. during the day and 15° C. to 25° C. during the night, and was regularly watered. After 2 to 3 weeks from the spraying of the compounds or the control material, the efficacy and the damages on each weed and each crop were assessed according to the scale of 0-10 (0: no effect, 10: complete death) scale and the results are shown in Table 3 below.
(§2) Pots for crops and weeds were prepared in the same manner as the test method illustrated in Table 3, and three kinds of weeds selected from Quamoclit pennata, Abutilon theophrasti Medicus, and Aeschynomene indica, Xanthium strumarium were used.

[2] = system: Abutilon theophrasti Medicus; assay: as above; conditions: assessed 2 to 3 weeks after spraying, scale 0-10 (0: no effect, 10: complete death)
Experimental: as §1, §2

[3] = system: Xanthium strumarium; assay: as above; conditions: assessed 2 to 3 weeks after spraying, scale 0-10 (0: no effect, 10: complete death)
Experimental: as §1, §2

[4] = system: Quamoclit pennata; assay: as above; conditions: assessed 2 to 3 weeks after spraying, scale 0-10 (0: no effect, 10: complete death)
Experimental: as §1, §2

[5] = system: Aeschynomene indica; assay: Herbicidal activity test, post-weeds emergence treatment; conditions: assessed after 2 to 3 weeks, 0: no effect, 10: complete death
Experimental: as §1
(§3) Pots for crops and weeds were prepared in the same manner as in Experimental Example 1, and then, when the crops and the weeds were raised up to 2 weeks roughly on a third-leaf stage, the compounds and the control material were sprayed thereon in the same manner as described above. The spray amount was 200 g/ha. After 2 to 3 weeks from the spraying of the test substance or the control substance, the efficacy and the damages on each weed and each crop were assessed according to the scale of 0-10 (0: no effect, 10: complete death) scale.
as §2, with “5,” for “3,”, “four” for “three”, “used. The spray amount was 200 g/ha for crops and 50 g/ha for weeds.” for “used.”

[6] = system: Abutilon theophrasti Medicus; assay: as above; conditions: assessed after 2 to 3 weeks, 0: no effect, 10: complete death
Experimental: as §1, §3
as §2, with “5,” for “3,”, “four” for “three”, “used. The spray amount was 200 g/ha for crops and 50 g/ha for weeds.” for “used.”

[7] = system: Xanthium strumarium; assay: as above; conditions: assessed after 2 to 3 weeks, 0: no effect, 10: complete death
Experimental: as §1, §3
as §2, with “5,” for “3,”, “four” for “three”, “used. The spray amount was 200 g/ha for crops and 50 g/ha for weeds.” for “used.”

[8] = system: Quamoclit pennata; assay: as above; conditions: assessed after 2 to 3 weeks, 0: no effect, 10: complete death
Experimental: as §1, §3
as §2, with “5,” for “3,”, “four” for “three”, “used. The spray amount was 200 g/ha for crops and 50 g/ha for weeds.” for “used.”

[9] = system: rice; assay: Herbicidal activity test, post-weeds emergence treatment (crop damage); conditions: assessed after 2 to 3 weeks, 0: no effect, 10: complete death
Experimental: as §1, §3
as §2, with “5,” for “3,”, “four” for “three”, “used. The spray amount was 200 g/ha for crops and 50 g/ha for weeds.” for “used.”

[10] = system: wheat; assay: as above; conditions: assessed after 2 to 3 weeks, 0: no effect, 10: complete death
Experimental: as §1, §3
as §2, with “5,” for “3,”, “four” for “three”, “used. The spray amount was 200 g/ha for crops and 50 g/ha for weeds.” for “used.”

[11] = system: maize; assay: as above; conditions: assessed after 2 to 3 weeks, 0: no effect, 10: complete death
Experimental: as §1, §3
as §2, with “5,” for “3,”, “four” for “three”, “used. The spray amount was 200 g/ha for crops and 50 g/ha for weeds.” for “used.”

[12] = system: rice; assay: Herbicidal activity test, pre-weeds emergence treatment (crop damage); conditions: assessed 2 to 3 weeks after spraying, scale 0-10 (0: no effect, 10: complete death)
Experimental: as §1, §2

[13] = system: wheat; assay: as above; conditions: assessed 2 to 3 weeks after spraying, scale 0-10 (0: no effect, 10: complete death)
Experimental: as §1, §2

[14] = system: maize; assay: as above; conditions: assessed 2 to 3 weeks after spraying, scale 0-10 (0: no effect, 10: complete death)
Experimental: as §1, §2

[15] = spray amount 50 g/ha for weeds, Table 6
[16] = spray amount 200 g/ha for crops, Table 6

| Compound | PRE AESIN (Aeschynomene indica), efficacy score ([1]; Table 3, 200 g/ha) | PRE ABUTH (Abutilon theophrasti Medicus), efficacy score ([2]; Table 3, 200 g/ha) | PRE XANST (Xanthium strumarium), efficacy score ([3]; Table 3, 200 g/ha) | PRE IPOAN (Quamoclit pennata), efficacy score ([4]; Table 3, 200 g/ha) | AESIN (Aeschynomene indica) herbicidal efficacy, scale of 0-10 ([5]; spray amount 200 g/ha, Table 5) | ABUTH (Abutilon theophrasti Medicus) herbicidal efficacy, scale of 0-10 ([6]; spray amount 200 g/ha, Table 5) | XANST (Xanthium strumarium) herbicidal efficacy, scale of 0-10 ([7]; spray amount 200 g/ha, Table 5) | IPOAN (Quamoclit pennata) herbicidal efficacy, scale of 0-10 ([8]; spray amount 200 g/ha, Table 5) | ORYSA (rice) damage, scale of 0-10 ([9]; spray amount 200 g/ha, Table 5) | TRZAW (wheat) damage, scale of 0-10 ([10]; spray amount 200 g/ha, Table 5) | ZEAMX (maize) damage, scale of 0-10 ([11]; spray amount 200 g/ha, Table 5) | PRE ORYSA (rice), damage score ([12]; Table 3, 200 g/ha) | PRE TRZAW (wheat), damage score ([13]; Table 3, 200 g/ha) | PRE ZEAMX (maize), damage score ([14]; Table 3, 200 g/ha) | PRE AESIN (Aeschynomene indica), efficacy score ([1]; Table 4, 200 g/ha) | PRE ABUTH (Abutilon theophrasti Medicus), efficacy score ([2]; Table 4, 200 g/ha) | PRE XANST (Xanthium strumarium), efficacy score ([3]; Table 4, 200 g/ha) | PRE IPOAN (Quamoclit pennata), efficacy score ([4]; Table 4, 200 g/ha) | AESIN (Aeschynomene indica) herbicidal efficacy, scale of 0-10 [5, 15] | ABUTH (Abutilon theophrasti Medicus) herbicidal efficacy, scale of 0-10 [6, 15] | also measured |
| --- | --- | --- | --- | --- | --- | --- | --- | --- | --- | --- | --- | --- | --- | --- | --- | --- | --- | --- | --- | --- | --- |
| COC(=O)c1nc(C2CC(Cl)=NO2)cc(NC(C)=O)c1Cl (stereo not drawn) [Compound 1, methyl 4-acetamido-3-chloro-6-(3-chloro-4,5-dihydroisoxazol-5-yl)picolinate] | 10 | 8 | 9 | 9 | 10 | 8 | 10 | 8 | 1 | 1 | 0 | 0 | 1 | 0 |  |  |  |  |  |  |  |
| COC(=O)c1nc(C2CC(Br)=NO2)cc(NC(C)=O)c1Cl (stereo not drawn) [Compound 3, methyl 4-acetamido-3-chloro-6-(3-bromo-4,5-dihydroisoxazol-5-yl)picolinate] | 10 | 10 | 8 | 8 | 10 | 3 | 10 | 6 | 0 | 0 | 0 | 0 | 0 | 0 |  |  |  |  |  |  |  |
| COC(=O)c1nc(C2CC(C(F)(F)F)=NO2)cc(NC(C)=O)c1Cl (stereo not drawn) [Compound 4, methyl 4-acetamido-3-chloro-6-(3-(trifluoromethyl)-4,5-dihydroisoxazol-5-yl)picolinate] | 8 | 6 | 6 | 7 | 10 | 3 | 8 | 3 | 0 | 0 | 0 | 0 | 0 | 0 |  |  |  |  |  |  |  |
| COC(=O)c1nc(C2CC(Br)=NO2)cc(N)c1Cl (stereo not drawn) [Compound 33, methyl 4-amino-3-chloro-6-(3-bromo-4,5-dihydroisoxazol-5-yl)picolinate] |  |  |  |  |  |  |  |  |  |  |  |  |  |  | 10 | 6 | 10 | 6 | 9 | 7 | XANST (Xanthium strumarium) herbicidal efficacy, scale of 0-10 [7, 15]: 10; IPOAN (Quamoclit pennata) herbicidal efficacy, scale of 0-10 [8, 15]: 5; ORYSA (rice) damage, scale of 0-10 [9, 16]: 0; TRZAW (wheat) damage, scale of 0-10 [10, 16]: 0; ZEAMX (maize) damage, scale of 0-10 [11, 16]: 0; PRE ORYSA (rice), damage score ([12]; Table 4, 200 g/ha): 0; PRE TRZAW (wheat), damage score ([13]; Table 4, 200 g/ha): 0; PRE ZEAMX (maize), damage score ([14]; Table 4, 200 g/ha): 2 |
| Nc1cc(C2CC(Br)=NO2)nc(C(=O)O)c1Cl (stereo not drawn) [Compound 34, 4-amino-3-chloro-6-(3-bromo-4,5-dihydroisoxazol-5-yl)picolinic acid] |  |  |  |  |  |  |  |  |  |  |  |  |  |  | 10 | 9 | 10 | 10 | 10 | 6 | XANST (Xanthium strumarium) herbicidal efficacy, scale of 0-10 [7, 15]: 10; IPOAN (Quamoclit pennata) herbicidal efficacy, scale of 0-10 [8, 15]: 3; ORYSA (rice) damage, scale of 0-10 [9, 16]: 2; TRZAW (wheat) damage, scale of 0-10 [10, 16]: 0; ZEAMX (maize) damage, scale of 0-10 [11, 16]: 0; PRE ORYSA (rice), damage score ([12]; Table 4, 200 g/ha): 0; PRE TRZAW (wheat), damage score ([13]; Table 4, 200 g/ha): 0; PRE ZEAMX (maize), damage score ([14]; Table 4, 200 g/ha): 0 |
| COC(=O)c1nc(C2CC(Cl)=NO2)cc(N)c1Cl (stereo not drawn) [Compound 37, methyl 4-amino-3-chloro-6-(3-chloro-4,5-dihydroisoxazol-5-yl)picolinate] | 10 | 10 | 10 | 10 | 10 | 10 | 10 | 8 | 1 | 1 | 0 | 0 | 0 | 0 | 10 | 10 | 10 | 7 | 10 | 10 | XANST (Xanthium strumarium) herbicidal efficacy, scale of 0-10 [7, 15]: 10; IPOAN (Quamoclit pennata) herbicidal efficacy, scale of 0-10 [8, 15]: 8; ORYSA (rice) damage, scale of 0-10 [9, 16]: 0; TRZAW (wheat) damage, scale of 0-10 [10, 16]: 0; ZEAMX (maize) damage, scale of 0-10 [11, 16]: 0; PRE ORYSA (rice), damage score ([12]; Table 4, 200 g/ha): 1; PRE TRZAW (wheat), damage score ([13]; Table 4, 200 g/ha): 0; PRE ZEAMX (maize), damage score ([14]; Table 4, 200 g/ha): 0 |
| Nc1cc(C2CC(Cl)=NO2)nc(C(=O)O)c1Cl (stereo not drawn) [Compound 38, 4-amino-3-chloro-6-(3-chloro-4,5-dihydroisoxazol-5-yl)picolinic acid] | 10 | 10 | 10 | 10 | 10 | 10 | 10 | 9 | 3 | 0 | 1 | 7 | 2 | 0 |  |  |  |  |  |  |  |
| COC(=O)c1nc(C2CC(C(F)(F)F)=NO2)cc(N)c1Cl (stereo not drawn) [Compound 39, methyl 4-amino-3-chloro-6-(3-trifluoromethyl-4,5-dihydroisoxazol-5-yl)picolinate] | 8 | 4 | 6 | 6 | 10 | 3 | 10 | 4 | 0 | 0 | 0 | 1 | 0 | 0 |  |  |  |  |  |  |  |

From patent publication US20190159450A1, “PYRIDINE-BASED COMPOUND INCLUDING ISOXAZOLINE RING AND USE THEREOF AS HERBICIDE” (MOGHU RESEARCH CENTER LTD., priority 2016, published 2019)
